Results on 16 compounds are retold here after patent publication US20110160222A1, “MODULATORS OF GLUCOSE HOMEOSTASIS FOR THE TREATMENT OF DIABETES AND METABOLIC DISORDERS” (Metabolex, Inc., priority 2008, published 2011).

The target of the test is T1, GPR119 (Homo sapiens, UniProt Q8TDV5).
T1 construct: expressed in transfected cells
T1 sequence (Q8TDV5 1-335): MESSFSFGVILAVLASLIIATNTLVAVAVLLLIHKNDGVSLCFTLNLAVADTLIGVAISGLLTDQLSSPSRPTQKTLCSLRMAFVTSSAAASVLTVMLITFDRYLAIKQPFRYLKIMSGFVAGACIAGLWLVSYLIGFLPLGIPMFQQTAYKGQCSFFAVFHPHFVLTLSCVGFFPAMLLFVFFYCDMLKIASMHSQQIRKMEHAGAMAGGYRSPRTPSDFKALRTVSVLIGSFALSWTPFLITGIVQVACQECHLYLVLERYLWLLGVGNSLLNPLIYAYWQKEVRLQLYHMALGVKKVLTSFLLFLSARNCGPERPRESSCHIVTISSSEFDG
As to the kind of experiment: Stimulation of cAMP in CHO cells stably expressing GPR119 (HTRF/FRET cAMP immunoassay). It is filed as cell-based. The conditions noted are these: 3 μM compound, 30 min, relative to maximal activity (=100%) of reference agonist 4-(4-{4-Nitro-3-[4-(pyridin-2-ylsulfanyl)-piperidin-1-yl]-phenoxy}-phenyl)-butan-2-one or 4-[6-(4-Methanesulfonyl-phenyl-amino)-5-nitro-pyrimidin-4-yl-oxy]-piperidine-1-carboxylic acid tert-butyl ester. How it is done:
This assay was developed using a stable cell line expressing GPR119, generated as follows. GPR119 (co-pending, co-owned patent application U.S. Ser. No. 11/964,461) was cloned into Gateway pDEST 40vector (Invitrogen), using the Gateway cloning system (invitrogen) according to the manufacturer's instructions. A stable cell line was generated by transfecting a 10 cm plate of CHO cells (source) with 8 μg of this construct using Transit-CHO transfection kit (Mirus). CHO cells were plated the day prior to transfection at a density of 3,000,000 cells/plate. Clones were selected using the antibiotic G418 at 500 μg/mL. 23 clones were picked and assayed for the expression of the receptor by measuring changes in intracellular cAMP levels in response to a known GPR119 agonist.
To measure cAMP activity in response to GPR119 agonist, the clones were plated in 96 well plates at 17500 cells per well. On the day after plating, cells were incubated with the GPR119 agonist at 10 μM for 30 minutes in Ham's F12 Media (Gibco) with 0.04% DMSO. cAMP was measured using the cAMP dynamic kit from C is Bio (Bedford, Mass.) according to the manufacturer's instructions. Briefly, cells were lysed, and cAMP levels determined by competitive immunoassay using D2 labeled cAMP, and europium cryptate tagged anti cAMP antibody. When in close proximity, the D2 and europium cryptate undergo fluorescence resonance energy transfer (FRET), which is measured as a fluorescence ratio (665 nm/620 nm). Unlabelled cAMP in the cell lysate competed with the D2 labeled cAMP for the europium crypate labeled antibody. The resulting decrease in FRET signal corresponded to intracellular cAMP levels. Fluorescence was read on a BMG Labtech PHERAstar, software version 1.50.
The clone with the greatest response to IC-GPCR2 agonist was selected for the screening assay.
Compounds were dissolved in 100% DMSO to a concentration of […] to provide stock solutions. To determine activity against GPR119, compounds were incubated with GPR119 stably expressing cells (described above), at 6-8 concentrations ranging from 0.00003 to 10 micromolar, in 96 well plates, in 50 μl of Ham's F12 media for 30 minutes. Cells were plated at 17500 cells per well 1 day before running the assay. All compounds were also screened against the parental CHO cells. cAMP was measured using the cAMP dynamic kit from C is Bio (Bedford, Mass.), according to the manufacturer's instructions. Briefly, cells were lysed and cAMP levels determined by competitive immunoassay using D2 labeled cAMP, and europium cryptate tagged anti cAMP antibody. When in close proximity, the D2 and europium cryptate undergo fluorescence resonance energy transfer (FRET), which is measured as a fluorescence ratio (665 nm/620 nm). Unlabelled cAMP in the cell lysate competed with the D2 labeled cAMP for the europium crypate labeled antibody. The resulting decrease in FRET signal corresponded to intracellular cAMP levels.
To determine percent activity for a tested compound, the FRET signal value obtained at a particular concentration are compared to the Maximal FRET signal value obtained for 4-(4-{4-Nitro-3-[4-(pyridin-2-ylsulfanyl)-piperidin-1-yl]-phenoxy}-phenyl)-butan-2-one (WO 2004/076,413) or 4-[6-(4-Methanesulfonyl-phenyl-amino)-5-nitro-pyrimidin-4-yl-oxy]-piperidine-1-carboxylic acid tert-butyl ester (US 2005/070,562). The maximal activity of 4-(4-{4-Nitro-3-[4-(pyridin-2-ylsulfanyl)-piperidin-1-yl]-phenoxy}-phenyl)-butan-2-one or 4-[6-(4-Methanesulfonyl-phenyl-amino)-5-nitro-pyrimidin-4-yl-oxy]-piperidine-1-carboxylic acid tert-butyl ester is designated as 100% activity. Typically, the concentration 4-(4-{4-Nitro-3-[4-(pyridin-2-ylsulfanyl)-piperidin-1-yl]-phenoxy}-phenyl)-butan-2-one or 4-[6-(4-Methanesulfonyl-phenyl-amino)-5-nitro-pyrimidin-4-yl-oxy]-piperidine-1-carboxylic acid tert-butyl ester was approximately 10 μM. […]
In the case of `CC(C)(C)OC(=O)N1CCC(n2ncc3c(Oc4ccc(S(C)(=O)=O)cc4)ncnc32)CC1` [Example 1, tert-butyl 4-(4-(4-(methylsulfonyl)phenoxy)-1H-pyrazolo[3,4-d]pyrimidin-1-yl)piperidine-1-carboxylate], the “% Activity at 3 uM” value is 59.01%.
As for `COc1ccc(Oc2ncnc3c2cnn3C2CCN(C(=O)OC(C)(C)C)CC2)cc1` [Example 2, tert-butyl 4-(4-(4-methoxyphenoxy)-1H-pyrazolo[3,4-d]pyrimidin-1-yl)piperidine-1-carboxylate], the “% Activity at 3 uM” value amounted to 69.8%.
`CC(C)(C)OC(=O)N1CCC(n2ncc3c(Oc4ccc(Oc5ccc(C(F)(F)F)cc5)cc4)ncnc32)CC1` [Example 3, tert-butyl 4-(4-(4-(4-(trifluoromethyl)phenoxy)phenoxy)-1H-pyrazolo[3,4-d]pyrimidin-1-yl)piperidine-1-carboxylate]: the “% Activity at 3 uM” value worked out at 12.73%.
As for `CC(C)(C)OC(=O)N1CCC(n2ncc3c(Oc4ccc(-n5ccnc5)cc4)ncnc32)CC1` [Example 4, tert-butyl 4-(4-(4-(1H-imidazol-1-yl)phenoxy)-1H-pyrazolo[3,4-d]pyrimidin-1-yl)piperidine-1-carboxylate], the “% Activity at 3 uM” value is reported as 69.49%.
Consider `CC(C)(C)OC(=O)N1CCC(n2ncc3c(Sc4ccc(S(C)(=O)=O)cc4)ncnc32)CC1` [Example 5, tert-butyl 4-(4-(4-(methylsulfonyl)phenylthio)-1H-pyrazolo[3,4-d]pyrimidin-1-yl)piperidine-1-carboxylate], for which the “% Activity at 3 uM” value worked out at 60.11%.
With `CC(C)(C)OC(=O)N1CCC(n2ncc3c(Oc4ccc(Oc5ccccc5)cc4)ncnc32)CC1` [Example 6, tert-butyl 4-(4-(4-phenoxyphenoxy)-1H-pyrazolo[3,4-d]pyrimidin-1-yl)piperidine-1-carboxylate], the “% Activity at 3 uM” value was 56.96%.
On to `CC(C)(C)OC(=O)N1CCC(Cn2ncc3c(Oc4ccc(S(C)(=O)=O)cc4)ncnc32)CC1` [Example 50, tert-butyl 4-((4-(4-(methylsulfonyl)phenoxy)-1H-pyrazolo[3,4-d]pyrimidin-1-yl)methyl)piperidine-1-carboxylate], for which the “% Activity at 3 uM” value amounted to 59.61%.
For the compound `CC(C)(C)OC(=O)N1CCC(Cn2ncc3c(Oc4ccc(S(C)(=O)=O)cc4)ncnc32)C1` (stereo not shown) [Example 61, tert-butyl 3-((4-(4-(methylsulfonyl)phenoxy)-1H-pyrazolo[3,4-d]pyrimidin-1-yl)methyl)pyrrolidine-1-carboxylate], the “% Activity at 3 uM” value is on record as 74.66%.
For `CC(C)(C)OC(=O)N1CCC(Cn2ncc3c(Oc4ccc(-n5cncn5)cc4)ncnc32)C1` (stereo not shown) [Example 62, tert-butyl 3-((4-(4-(1H-1,2,4-triazol-1-yl)phenoxy)-1H-pyrazolo[3,4-d]pyrimidin-1-yl)methyl)pyrrolidine-1-carboxylate], the “% Activity at 3 uM” value came to 67.37%.
As to `CC(C)CS(=O)(=O)N1CCC(n2ncc3c(Oc4ccc(S(C)(=O)=O)cc4)ncnc32)CC1` [Example 63, 1-(1-(isobutylsulfonyl)piperidin-4-yl)-4-(4-(methylsulfonyl)phenoxy)-1H-pyrazolo[3,4-d]pyrimidine], the “% Activity at 3 uM” value is reported as 51.02%.
In the case of `Cc1ccc(S(=O)(=O)N2CCC(n3ncc4c(Oc5ccc(S(C)(=O)=O)cc5)ncnc43)CC2)cc1` [Example 64, 4-(4-(methylsulfonyl)phenoxy)-1-(1-tosylpiperidin-4-yl)-1H-pyrazolo[3,4-d]pyrimidine], the “% Activity at 3 uM” value stood at 2.07%.
For `CS(=O)(=O)c1ccc(Oc2ncnc3c2cnn3C2CCN(S(=O)(=O)Cc3ccccc3)CC2)cc1` [Example 65, 1-(1-(benzylsulfonyl)piperidin-4-yl)-4-(4-(methylsulfonyl)phenoxy)-1H-pyrazolo[3,4-d]pyrimidine], the “% Activity at 3 uM” value was determined as 24.15%.
`CS(=O)(=O)c1ccc(Oc2ncnc3c2cnn3C2CCN(S(=O)(=O)C3CC3)CC2)cc1` [Example 66, 1-(1-(cyclopropylsulfonyl)piperidin-4-yl)-4-(4-(methylsulfonyl)phenoxy)-1H-pyrazolo[3,4-d]pyrimidine]: the “% Activity at 3 uM” value was found to be 9.73%.
The result for `CN(c1ccc(S(C)(=O)=O)cc1)c1ncnc2c1nnn2C1CCN(C(=O)OC(C)(C)C)CC1` [Example 67, tert-butyl 4-(7-(methyl(4-(methylsulfonyl)phenyl)amino)-3H-[1,2,3]triazolo[4,5-d]pyrimidin-3-yl)piperidine-1-carboxylate] reads 1.95%.
Regarding `CC(C)(C)OC(=O)N1CCC(n2nnc3c(Oc4ccc(S(C)(=O)=O)cc4)ncnc32)CC1` [Example 68, tert-butyl 4-(7-(4-(methylsulfonyl)phenoxy)-3H-[1,2,3]triazolo[4,5-d]pyrimidin-3-yl)piperidine-1-carboxylate], the “% Activity at 3 uM” value is on record as 59.01%.
Turning to `CCOC(=O)N1CCC(n2nnc3c(Oc4ccc(S(C)(=O)=O)cc4)ncnc32)CC1` [Example 69, ethyl 4-(7-(4-(methylsulfonyl)phenoxy)-3H-[1,2,3]triazolo[4,5-d]pyrimidin-3-yl)piperidine-1-carboxylate], the “% Activity at 3 uM” value worked out at 48.23%.
